# In the Kinase Knowledgebase extract (Sharma et al. 2016):
# pIC50: −log10 of the molar value.
# Target: MAPK14 (human) (UniProt Q16539)
# Experiment: Inhibition of MAPK14 Kinase Activity
# Chain of MAPK14 (human) (Q16539 whole entry, looked up): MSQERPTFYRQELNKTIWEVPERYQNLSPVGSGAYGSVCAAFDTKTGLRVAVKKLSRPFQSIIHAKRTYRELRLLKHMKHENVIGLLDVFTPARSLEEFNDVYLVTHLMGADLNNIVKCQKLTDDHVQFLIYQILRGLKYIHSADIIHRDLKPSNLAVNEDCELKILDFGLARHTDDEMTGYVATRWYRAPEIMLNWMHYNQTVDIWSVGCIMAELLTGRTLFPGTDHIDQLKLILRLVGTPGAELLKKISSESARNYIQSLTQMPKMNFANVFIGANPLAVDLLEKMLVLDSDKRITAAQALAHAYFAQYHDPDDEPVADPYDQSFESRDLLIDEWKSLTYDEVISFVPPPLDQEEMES
row,SMILES,pIC50
1,CC(C)NC(=O)c1csc(-c2oc(CNC(=O)c3ccc(Oc4cccc(O)c4)cc3)nc2-c2ccc(F)cc2)n1,≥ 6.00
2,O=C(NCCCO)c1csc(-c2c(-c3ccc(F)cc3)n[nH]c2C2CCNCC2)n1,≥ 6.00
3,CCNC(=O)c1csc(-c2c(-c3ccc(F)cc3)n[nH]c2C2CCNCC2)n1,≥ 6.00
4,Cc1[nH]nc(-c2ccc(F)cc2)c1-c1nc(C(=O)NCc2ccncc2)cs1,≥ 6.00
5,CCOc1ccc2ccccc2c1C(=O)N1CCN(Cc2nc(-c3ccc(F)cc3)c(-c3nc(C(=O)NC(C)C)cs3)o2)CC1,≥ 6.00
6,CC(C)NC(=O)c1csc(-c2oc(CN3CCN(C(=O)Cc4ccc(C(F)(F)F)cc4)CC3)nc2-c2ccc(F)cc2)n1,≥ 6.00
7,CC(C)NC(=O)c1csc(-c2c(-c3ccc(F)cc3)noc2CNC(=O)C(O)CCl)n1 (stereo not drawn),≥ 6.00
8,CC(C)NC(=O)c1csc(-c2c(-c3ccc(F)cc3)noc2CN(C)C)n1,≥ 6.00
9,Cc1onc(-c2ccc(Cl)cc2)c1-c1ccn(C(=O)NCC(C)C)n1,≥ 6.00
10,Cc1[nH]nc(-c2ccc(F)cc2)c1-c1nc(C(=O)NCc2cccnc2)cs1,≥ 6.00
11,Cc1ccc(O)c(C(=O)N2CCN(Cc3nc(-c4ccc(F)cc4)c(-c4nc(C(=O)NC(C)C)cs4)o3)CC2)c1,≥ 6.00
12,CC(=O)N1CCC(c2[nH]nc(-c3ccc(F)cc3)c2-c2nc(C(=O)NC(C)C)cs2)CC1,≥ 6.00
13,Cc1onc(-c2ccc(F)cc2)c1-c1nc(C(=O)NC(C)C)cs1,≥ 6.00
14,CC(C)NC(=O)c1csc(-c2c(-c3ccc(F)cc3)n[nH]c2C2CCN(C(=O)c3ccccc3C=O)CC2)n1,≥ 6.00
15,CC(C)NC(=O)c1csc(-c2oc(CNC(=O)c3cc([N+](=O)[O-])ccc3O)nc2-c2ccc(F)cc2)n1,≥ 6.00
16,COc1cc(CN(C)C(=O)c2csc(-c3sc(C)nc3-c3ccc(F)cc3)n2)cc(OC)c1OC,≥ 6.00
17,O=C(NCc1cccnc1)c1csc(-c2c(-c3ccc(F)cc3)n[nH]c2C2CCNCC2)n1,≥ 6.00
18,CC(C)NC(=O)c1csc(-c2oc(CN3CCN(C(=O)c4cccc(O)c4O)CC3)nc2-c2ccc(F)cc2)n1,≥ 6.00
19,CCCCCCCC(=O)NCc1nc(-c2ccc(F)cc2)c(-c2nc(C(=O)NC(C)C)cs2)o1,≥ 6.00
20,Cc1[nH]nc(-c2ccc(F)cc2)c1-c1nc(C(=O)NCc2ccc3c(c2)OCO3)cs1,≥ 6.00
21,CC(C)NC(=O)c1csc(-c2oc(CNC(=O)c3ccc4cccc(O)c4n3)nc2-c2ccc(F)cc2)n1,≥ 6.00

row,SMILES,pIC50
1,CC(C)NC(=O)c1csc(-c2c(-c3ccc(F)cc3)n[nH]c2C2CCN(C(=O)CO)CC2)n1,≥ 6.00
2,CCC(CO)NC(=O)c1csc(-c2sc(C)nc2-c2ccc(F)cc2)n1 (stereo not drawn),≥ 6.00
3,COc1cccc(OC)c1C(=O)N1CCN(Cc2nc(-c3ccc(F)cc3)c(-c3nc(C(=O)NC(C)C)cs3)o2)CC1,≥ 6.00
4,CC(C)NC(=O)c1csc(-c2c(-c3ccc(F)cc3)n[nH]c2C2CCN(C(=O)c3cscn3)CC2)n1,≥ 6.00
5,COc1cc2c(cc1OC)CN(C(=O)c1csc(-c3sc(C)nc3-c3ccc(F)cc3)n1)CC2,≥ 6.00
6,COC[C@H]1CCCN1C(=O)c1csc(-c2sc(C)nc2-c2ccc(F)cc2)n1,≥ 6.00
7,CC(C)NC(=O)c1csc(-c2c(-c3ccc(F)cc3)noc2CNCC#N)n1,≥ 6.00
8,COCCNCc1nc(-c2ccc(F)cc2)c(-c2nc(C(=O)NC(C)C)cs2)o1,≥ 6.00
9,CC(C)NC(=O)c1csc(-c2oc(CNC(=O)c3ccc(O)cc3O)nc2-c2ccc(F)cc2)n1,≥ 6.00
10,CC(C)NC(=O)c1csc(-c2oc(CNC(=O)c3cnc(O)c(Cl)c3)nc2-c2ccc(F)cc2)n1,≥ 6.00
11,CCC(CO)NCc1nc(-c2ccc(F)cc2)c(-c2nc(C(=O)NC(C)C)cs2)o1 (stereo not drawn),≥ 6.00
12,CC(C)NC(=O)c1csc(-c2oc(CNC(=O)C=Cc3cccc(O)c3)nc2-c2ccc(F)cc2)n1,≥ 6.00
13,COc1ccc(C(=O)N2CCN(Cc3nc(-c4ccc(F)cc4)c(-c4nc(C(=O)NC(C)C)cs4)o3)CC2)c(OC)c1OC,≥ 6.00
14,Cc1nc(-c2ccc(F)cc2)c(-c2nc(C(=O)NCc3ccccc3F)cs2)s1,≥ 6.00
15,CC(C)NC(=O)c1csc(-c2c(-c3ccc(F)cc3)ncn2C2CCN(C(=O)CO)CC2)n1,≥ 6.00
16,COc1cc(C(=O)NCc2nc(-c3ccc(F)cc3)c(-c3nc(C(=O)NC(C)C)cs3)o2)c([N+](=O)[O-])cc1OC,≥ 6.00
17,CC(C)NC(=O)c1csc(-c2c(-c3ccc(F)cc3)noc2CN)n1,≥ 6.00
18,Cc1cccc(CCC(=O)N2CCN(Cc3nc(-c4ccc(F)cc4)c(-c4nc(C(=O)NC(C)C)cs4)o3)CC2)c1,≥ 6.00
19,CC(CC(=O)N1CCN(Cc2nc(-c3ccc(F)cc3)c(-c3nc(C(=O)NC(C)C)cs3)o2)CC1)CC(C)(C)C (stereo not drawn),≥ 6.00
20,Cc1nc(-c2ccc(F)cc2)c(-c2nc(C(=O)NC(C)C)cs2)s1,≥ 6.00
21,CC(C)NC(=O)c1csc(-c2oc(CNC(=O)c3cc(F)c(F)cc3Cl)nc2-c2ccc(F)cc2)n1,≥ 6.00

row,SMILES,pIC50
1,CC(C)NC(=O)c1csc(-c2oc(CN3CCN(C(=O)CC4Cc5ccccc5C4)CC3)nc2-c2ccc(F)cc2)n1,≥ 6.00
2,CC(C)NC(=O)c1csc(-c2oc(CN3CCN(C(=O)c4cc(O)ccc4O)CC3)nc2-c2ccc(F)cc2)n1,≥ 6.00
3,Cc1ccc([N+](=O)[O-])c(C(=O)NCc2nc(-c3ccc(F)cc3)c(-c3nc(C(=O)NC(C)C)cs3)o2)c1,≥ 6.00
4,COc1ccccc1CNC(=O)c1csc(-c2sc(C)nc2-c2ccc(F)cc2)n1,≥ 6.00
5,CC(C)NC(=O)c1csc(-c2oc(CNC(=O)c3ccc(F)cc3F)nc2-c2ccc(F)cc2)n1,≥ 6.00
6,Cc1nc(-c2ccc(F)cc2)c(-c2nc(C(=O)NCCCN3CCCC3=O)cs2)s1,≥ 6.00
7,Cc1nc(-c2ccc(F)cc2)c(-c2nc(C(=O)NC3CCCCCC3)cs2)s1,≥ 6.00
8,CC(C)NC(=O)c1csc(-c2oc(CNC(=O)C(C)c3ccc(O)cc3)nc2-c2ccc(F)cc2)n1 (stereo not drawn),≥ 6.00
9,Cc1nc(-c2ccc(F)cc2)c(-c2nc(C(=O)NCCO)cs2)s1,≥ 6.00
10,CC(C)NC(=O)c1csc(-c2c(-c3ccc(F)cc3)n[nH]c2C2CCN(C(=O)c3cccnc3)CC2)n1,≥ 6.00
11,Cc1nc(-c2ccc(F)cc2)c(-c2nc(C(=O)NC3CCCCC3)cs2)s1,≥ 6.00
12,CC(C)NC(=O)c1csc(-c2oc(CNC(=O)CCc3nc4ccccc4[nH]3)nc2-c2ccc(F)cc2)n1,≥ 6.00
13,COc1ccc(C(=O)N2CCN(Cc3nc(-c4ccc(F)cc4)c(-c4nc(C(=O)NC(C)C)cs4)o3)CC2)cc1O,≥ 6.00
14,CC(C)NC(=O)c1csc(-c2oc(CN3CCN(C(=O)Cc4ccc(Br)cc4)CC3)nc2-c2ccc(F)cc2)n1,≥ 6.00
15,CC(C)NC(=O)c1csc(-c2oc(CNC(=O)c3cc(C(C)C)cc(C(C)C)c3O)nc2-c2ccc(F)cc2)n1,≥ 6.00
16,COc1cc(C=CC(=O)NCc2nc(-c3ccc(F)cc3)c(-c3nc(C(=O)NC(C)C)cs3)o2)ccc1O,≥ 6.00
17,CC(C)NC(=O)c1csc(-c2oc(CN3CCN(C(=O)C4CCc5ccccc5C4)CC3)nc2-c2ccc(F)cc2)n1 (stereo not drawn),≥ 6.00
18,Cc1nc(-c2ccc(F)cc2)c(-c2nc(C(=O)NCCc3ccc4c(c3)OCO4)cs2)s1,≥ 6.00
19,CCCN(C)Cc1onc(-c2ccc(F)cc2)c1-c1nc(C(=O)NC(C)C)cs1,≥ 6.00
20,Cc1ccccc1C(=O)N1CCC(c2[nH]nc(-c3ccc(F)cc3)c2-c2nc(C(=O)NC(C)C)cs2)CC1,≥ 6.00
21,O=C(NCC1CC1)c1csc(-c2c(-c3ccc(F)cc3)n[nH]c2C2CCNCC2)n1,≥ 6.00
